# Several values for one entry are separate records, joined by “and”; a condition that tells them apart may be missing. Equal values may be shown once.
# Assays:
# Assay type in all cases: cell-based
# RPE1 cells = experiment: Cell growth assay (IncuCyte confluence over 72 h); conditions: for RPE1 cell growth: listed as AN1
# In short: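 Phase confluence (% area covered by cells) imaged every 2 h for 72 h after compound addition; cells in DMEM/10% FBS, seeded 24 h before treatment. Controls were 0.1% DMSO, 250 nM Torin1 and 200 ng/mL Bafilomycin (final). Each point averages three wells.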
# U2OS cells = experiment: Cell growth assay (IncuCyte confluence over 72 h); set-up: key to U2OS cell growth: % of well area covered by cells (confluence); conditions: listed as AN1
# Experimental: Cell growth assay: Cell confluence (phase) from RPE1 (hTERT RPE-1, ATCC CLR_4000) or U2OS (ATCC, HTB-96) cell lines were monitored over time with the IncuCyte S3 (Sartiorius, Germany) in 384-well plates in 50 ul DMEM media, supplemented with 10% Fetal Bovine Serum (FBS) 1% penicillin/Streptomycin and incubated 24 h before treatment. Experiment was performed as described in Cano-Franco et al.. […] Cell confluence is represented as % of area covered by cells. Each data point represents the average ratio or confluence obtained from three individual wells of the plate.
# [1] = system: RPE-1 GFP-LC3B-RPF-LC3∆G reporter cell line; experiment: Autophagy flux assay; conditions: rebuttal letter
# Source text: LC3/GABARAP in vitro, but no attempts are made to replicate the previously reported cellular activity of these compounds. It would be beneficial to know whether these compounds have any effect on autophagy in the authors’ hands, and therefore could act by alternative mechanisms, or whether they […]
# Response: We were very concerned that the ligands used for ATTEC development might induce general toxicity in cell lines, as they are based on drugs used in oncology (such as the kinesin inhibitor 10O5) and the isoxazole scaffold often used in the development of multi-targeted kinase inhibitors. However, we have now investigated compounds 1-4 in autophagy flux assays using the RPE-1 GFP-LC3B-RPF-LC3∆G reporter cell line (single clone) as […]
# reported in [PMID:37558952].
# (RR_Figure 6). The authors of the first manuscript reporting these ligands [PMID: 31666698]
# However, due to the potent activity of 8F20 on KIF11, which will have profound effects on cell trafficking and growth, and DCAF11 (AN1, [PMID: 38036533]), we find it unlikely that the effects on autophagy are due to LC3/GABARAP modulation. Due to the lack of target (LC3/GABARAP) binding in vitro and the […]
# of this review but have excluded the data in the manuscript.
# RR_figure 5: Autophagy flux measurement for 10O5 and AN2. No induction of autophagy or effects (right panels, assessed by Incucyte (Sartorius) life cell imaging) on cell growth was […]
# RR_figure 6: Autophagy flux measurement for 8F20 and AN1 show changes in autophagy flux […]
# It is not clear how many biological replicates have been performed. For example, the figure legends […]
structure (smiles),measurement,setting,value
O=C1Nc2ccc(Br)cc2C1=Cc1cc(O)c(O)c(Br)c1 [compound 1],RPE1 cell growth,"RPE1 cells; 100 nM, 10 h",30 and 17 and 26
same,RPE1 cell growth,"RPE1 cells; 100 nM, 12 h",33 and 18 and 27
same,RPE1 cell growth,"RPE1 cells; 100 nM, 14 h",37 and 19 and 27
same,RPE1 cell growth,"RPE1 cells; 100 nM, 16 h",37 and 22 and 30
same,RPE1 cell growth,"RPE1 cells; 100 nM, 18 h",41 and 22 and 30
same,RPE1 cell growth,"RPE1 cells; 100 nM, 20 h",42 and 22
same,RPE1 cell growth,"RPE1 cells; 500 nM, 10 h",40 and 23 and 25
same,RPE1 cell growth,"RPE1 cells; 500 nM, 12 h",43 and 24 and 26
same,RPE1 cell growth,"RPE1 cells; 500 nM, 14 h",44 and 25 and 28
same,RPE1 cell growth,"RPE1 cells; 500 nM, 16 h",47 and 29 and 30
same,RPE1 cell growth,"RPE1 cells; 500 nM, 18 h",49 and 29 and 32
same,RPE1 cell growth,"RPE1 cells; 1 uM, 10 h",23 and 42 and 25
same,RPE1 cell growth,"RPE1 cells; 1 uM, 12 h",25 and 45 and 28
same,RPE1 cell growth,"RPE1 cells; 1 uM, 14 h",26 and 48 and 29
same,RPE1 cell growth,"RPE1 cells; 1 uM, 16 h",29 and 49 and 32
same,RPE1 cell growth,"RPE1 cells; 1 uM, 18 h",30 and 50 and 34
same,RPE1 cell growth,"RPE1 cells; 1 uM, 20 h",32
same,RPE1 cell growth,"RPE1 cells; 3 uM, 10 h",43 and 32 and 29
same,RPE1 cell growth,"RPE1 cells; 3 uM, 12 h",45 and 37 and 31
same,RPE1 cell growth,"RPE1 cells; 3 uM, 14 h",48 and 37 and 32
same,RPE1 cell growth,"RPE1 cells; 3 uM, 16 h",50 and 39 and 35
same,RPE1 cell growth,"RPE1 cells; 3 uM, 18 h",53 and 40 and 36
same,RPE1 cell growth,"RPE1 cells; 3 uM, 20 h",52 and 41 and 37
same,RPE1 cell growth,"RPE1 cells; 5 uM, 10 h",47 and 35
same,RPE1 cell growth,"RPE1 cells; 5 uM, 12 h",49 and 38
same,RPE1 cell growth,"RPE1 cells; 5 uM, 14 h",53 and 38 and 42
same,RPE1 cell growth,"RPE1 cells; 5 uM, 16 h",55 and 41 and 44
same,RPE1 cell growth,"RPE1 cells; 5 uM, 18 h",57 and 42 and 46
same,RPE1 cell growth,"RPE1 cells; 5 uM, 20 h",56 and 45 and 49
same,RPE1 cell growth,"RPE1 cells; 10 uM, 10 h",47 and 35 and 32
same,RPE1 cell growth,"RPE1 cells; 10 uM, 12 h",51 and 37 and 33
same,RPE1 cell growth,"RPE1 cells; 10 uM, 14 h",53 and 39 and 36
same,RPE1 cell growth,"RPE1 cells; 10 uM, 16 h",55 and 43 and 35
same,RPE1 cell growth,"RPE1 cells; 10 uM, 18 h",56 and 38 and 37
same,RPE1 cell growth,"RPE1 cells; 10 uM, 20 h",54 and 41 and 38
same,effect on cell growth (confluence),"RPE1 cells; RPE1, 72 h",high dosage effects
same,U2OS cell growth,"U2OS cells; 100 nM, time 12 h",35.4537 and 32.3571 and 35.5968
same,U2OS cell growth,"U2OS cells; 100 nM, time 14 h",36.0873 and 39.0366 and 39.8543
same,U2OS cell growth,"U2OS cells; 100 nM, time 16 h",40.1608 and 39.3939 and 40.4478
same,U2OS cell growth,"U2OS cells; 100 nM, time 18 h",39.1099 and 37.1872 and 41.4362
same,U2OS cell growth,"U2OS cells; 100 nM, time 20 h",43.7035 and 39.6959 and 46.4166
same,U2OS cell growth,"U2OS cells; 500 nM, time 10 h",38.9338 and 41.9757 and 41.002
same,U2OS cell growth,"U2OS cells; 500 nM, time 12 h",39.0148 and 42.3639 and 41.6671
same,U2OS cell growth,"U2OS cells; 500 nM, time 14 h",46.8116 and 46.7871 and 49.5823
same,U2OS cell growth,"U2OS cells; 500 nM, time 16 h",47.3468 and 53.1118 and 48.7734
same,U2OS cell growth,"U2OS cells; 500 nM, time 18 h",38.8125 and 47.7715 and 46.4243
same,U2OS cell growth,"U2OS cells; 1 uM, time 10 h",48.4994 and 57.2399 and 59.5515
same,U2OS cell growth,"U2OS cells; 1 uM, time 12 h",47.4737 and 55.8868 and 54.1029
same,U2OS cell growth,"U2OS cells; 1 uM, time 14 h",46.9999 and 57.1898 and 59.5195
same,U2OS cell growth,"U2OS cells; 1 uM, time 16 h",54.858 and 68.5371 and 64.7822
same,U2OS cell growth,"U2OS cells; 1 uM, time 18 h",48.8637 and 59.8627 and 56.3987
same,U2OS cell growth,"U2OS cells; 1 uM, time 20 h",55.1556
same,U2OS cell growth,"U2OS cells; 3 uM, time 10 h",50.7422 and 64.1291 and 54.5819
same,U2OS cell growth,"U2OS cells; 3 uM, time 12 h",47.9181 and 60.7394 and 55.125
same,U2OS cell growth,"U2OS cells; 3 uM, time 14 h",49.0342 and 60.5893 and 56.0885
same,U2OS cell growth,"U2OS cells; 3 uM, time 16 h",57.6695 and 67.0321 and 61.6341
same,U2OS cell growth,"U2OS cells; 3 uM, time 18 h",48.0442 and 62.2285 and 59.0264
same,U2OS cell growth,"U2OS cells; 3 uM, time 20 h",51.1291 and 66.3122 and 66.4452
same,U2OS cell growth,"U2OS cells; 5 uM, time 10 h",55.0487 and 54.3842 and 51.4536
same,U2OS cell growth,"U2OS cells; 5 uM, time 12 h",54.96 and 58.942 and 53.816
same,U2OS cell growth,"U2OS cells; 5 uM, time 14 h",49.0714 and 54.2863 and 67.0438
same,U2OS cell growth,"U2OS cells; 5 uM, time 16 h",60.7907 and 61.6888 and 65.4648
same,U2OS cell growth,"U2OS cells; 5 uM, time 18 h",57.5124 and 66.5017 and 59.7417
same,U2OS cell growth,"U2OS cells; 5 uM, time 20 h",63.2102 and 60.2689 and 68.651
same,U2OS cell growth,"U2OS cells; 10 uM, time 10 h",59.7697 and 44.8684 and 48.7466
same,U2OS cell growth,"U2OS cells; 10 uM, time 12 h",61.5092 and 47.1657 and 52.5139
same,U2OS cell growth,"U2OS cells; 10 uM, time 14 h",62.1617 and 46.5884 and 50.2783
same,U2OS cell growth,"U2OS cells; 10 uM, time 16 h",65.2687 and 51.6571 and 54.5952
same,U2OS cell growth,"U2OS cells; 10 uM, time 18 h",66.9364 and 52.1914 and 55.4238
same,U2OS cell growth,"U2OS cells; 10 uM, time 20 h",65.8459 and 51.6884 and 56.9826
same,autophagy induction (autophagy flux),[1],significant autophagy activation
same,effects on cell growth (Incucyte life cell imaging),[1],profound effects on cell growth

# — paper PMC11589570, “Critical assessment of LC3/GABARAP ligands used for degrader development and ligandability of LC3/GABARAP binding pockets” (Nature Communications, 2024)
